Measured values published in patent US11098055B2, “Ester ACC inhibitors and uses thereof” (Gilead Apollo, LLC, priority 2015, dated 2021).
In brackets after ≈: the same amount, converted by molar mass.

How the values were obtained:
hACC2 = hACC2 (Homo sapiens, UniProt O00763); assay: In vitro ACC2 inhibition assay (ADP-Glo), human ACC2; assay type: biochemical
Description: (§1) An exemplary procedure for the in vitro ACC inhibition assay, which can be used to determine the inhibitory action of compounds of the invention toward either human (hACC2) or fungal (fACC2) ACC2, follows. The ADP-Glo™ Kinase Assay kit from Promega was used. The ADP-Glo™ Kinase Assay is a luminescent ADP detection assay to measure enzymatic activity by quantifying the amount of ADP produced during an enzyme reaction. The assay is performed in two steps; first, after the enzyme reaction, an equal volume of ADP-Glo™ Reagent is added to terminate the reaction and deplete the remaining ATP. Second, the Kinase Detection Reagent is added to simultaneously convert ADP to ATP and allow the newly synthesized ATP to be measured using a luciferase/luciferin reaction. Luminescence can be correlated to ADP concentrations by using an ATP-to-ADP conversion curve. The detailed procedure is as follows. 50 μL of the compound being tested (600 μM in DMSO) was added to a 384-well dilution plate. The compound was diluted 1:3 in succession in DMSO for each row for 11 wells. 0.5 μL ACC2 working solution was added to 384-well white Optiplate assay plate. 0.5 μL diluted compound solution in each column from step 2 was added to assay plate, each row containing 2 replicates. For the last 2 rows, 0.5 μL negative control (DMSO) was added in one row and 0.5 μL positive control (compound I-97) in the other. The plates were incubated at room temperature for 15 minutes. 5 μL substrate working solution was added to each well to initiate reaction. Final ACC2 reaction concentrations consist of: 5 nM ACC2, 20 μM ATP, 20 μM acetyl-CoA, 12 mM NaHCO3, 0.01% Brij35, 2 mM DTT, 5% DMSO, test compound concentrations: 30 μM, 10 μM, 3.33 μM, 1.11 μM, 0.37 μM, 0.123 μM, 0.0411 μM, 0.0137 μM, 0.00457 μM, 0.00152 μM, and 0.00051 μM. Plates were incubated at room temperature for 60 minutes. 10 μL ADP glo reagent was added. Plates were incubated at room temperature for 40 minutes. 20 μL kinase detection reagent was added. Plates were incubated at room temperature for 40 minutes, and then read on a Perkin Elmer EnVision 2104 plate reader for luminescence as Relative Light Units (RLU).
(§2) Data for each concentration, as well as the positive and negative controls, were averaged, and the standard deviation calculated. Percent inhibition was calculated by the formula: 100×(average negative control−compound)/(average negative control−average positive control). The IC50 for each compound was calculated by fitting the data with a non-linear regression equation: Y=Bottom+(Top−Bottom)/(1+10^((Log IC50−X)*HillSlope)), where X is the log of compound concentration and Y is percent inhibition.

fACC2 = fACC2 (UniProt Q00955); assay: In vitro ACC2 inhibition assay (ADP-Glo), fungal ACC2; assay type: biochemical
fACC2, sequence (Q00955 whole entry): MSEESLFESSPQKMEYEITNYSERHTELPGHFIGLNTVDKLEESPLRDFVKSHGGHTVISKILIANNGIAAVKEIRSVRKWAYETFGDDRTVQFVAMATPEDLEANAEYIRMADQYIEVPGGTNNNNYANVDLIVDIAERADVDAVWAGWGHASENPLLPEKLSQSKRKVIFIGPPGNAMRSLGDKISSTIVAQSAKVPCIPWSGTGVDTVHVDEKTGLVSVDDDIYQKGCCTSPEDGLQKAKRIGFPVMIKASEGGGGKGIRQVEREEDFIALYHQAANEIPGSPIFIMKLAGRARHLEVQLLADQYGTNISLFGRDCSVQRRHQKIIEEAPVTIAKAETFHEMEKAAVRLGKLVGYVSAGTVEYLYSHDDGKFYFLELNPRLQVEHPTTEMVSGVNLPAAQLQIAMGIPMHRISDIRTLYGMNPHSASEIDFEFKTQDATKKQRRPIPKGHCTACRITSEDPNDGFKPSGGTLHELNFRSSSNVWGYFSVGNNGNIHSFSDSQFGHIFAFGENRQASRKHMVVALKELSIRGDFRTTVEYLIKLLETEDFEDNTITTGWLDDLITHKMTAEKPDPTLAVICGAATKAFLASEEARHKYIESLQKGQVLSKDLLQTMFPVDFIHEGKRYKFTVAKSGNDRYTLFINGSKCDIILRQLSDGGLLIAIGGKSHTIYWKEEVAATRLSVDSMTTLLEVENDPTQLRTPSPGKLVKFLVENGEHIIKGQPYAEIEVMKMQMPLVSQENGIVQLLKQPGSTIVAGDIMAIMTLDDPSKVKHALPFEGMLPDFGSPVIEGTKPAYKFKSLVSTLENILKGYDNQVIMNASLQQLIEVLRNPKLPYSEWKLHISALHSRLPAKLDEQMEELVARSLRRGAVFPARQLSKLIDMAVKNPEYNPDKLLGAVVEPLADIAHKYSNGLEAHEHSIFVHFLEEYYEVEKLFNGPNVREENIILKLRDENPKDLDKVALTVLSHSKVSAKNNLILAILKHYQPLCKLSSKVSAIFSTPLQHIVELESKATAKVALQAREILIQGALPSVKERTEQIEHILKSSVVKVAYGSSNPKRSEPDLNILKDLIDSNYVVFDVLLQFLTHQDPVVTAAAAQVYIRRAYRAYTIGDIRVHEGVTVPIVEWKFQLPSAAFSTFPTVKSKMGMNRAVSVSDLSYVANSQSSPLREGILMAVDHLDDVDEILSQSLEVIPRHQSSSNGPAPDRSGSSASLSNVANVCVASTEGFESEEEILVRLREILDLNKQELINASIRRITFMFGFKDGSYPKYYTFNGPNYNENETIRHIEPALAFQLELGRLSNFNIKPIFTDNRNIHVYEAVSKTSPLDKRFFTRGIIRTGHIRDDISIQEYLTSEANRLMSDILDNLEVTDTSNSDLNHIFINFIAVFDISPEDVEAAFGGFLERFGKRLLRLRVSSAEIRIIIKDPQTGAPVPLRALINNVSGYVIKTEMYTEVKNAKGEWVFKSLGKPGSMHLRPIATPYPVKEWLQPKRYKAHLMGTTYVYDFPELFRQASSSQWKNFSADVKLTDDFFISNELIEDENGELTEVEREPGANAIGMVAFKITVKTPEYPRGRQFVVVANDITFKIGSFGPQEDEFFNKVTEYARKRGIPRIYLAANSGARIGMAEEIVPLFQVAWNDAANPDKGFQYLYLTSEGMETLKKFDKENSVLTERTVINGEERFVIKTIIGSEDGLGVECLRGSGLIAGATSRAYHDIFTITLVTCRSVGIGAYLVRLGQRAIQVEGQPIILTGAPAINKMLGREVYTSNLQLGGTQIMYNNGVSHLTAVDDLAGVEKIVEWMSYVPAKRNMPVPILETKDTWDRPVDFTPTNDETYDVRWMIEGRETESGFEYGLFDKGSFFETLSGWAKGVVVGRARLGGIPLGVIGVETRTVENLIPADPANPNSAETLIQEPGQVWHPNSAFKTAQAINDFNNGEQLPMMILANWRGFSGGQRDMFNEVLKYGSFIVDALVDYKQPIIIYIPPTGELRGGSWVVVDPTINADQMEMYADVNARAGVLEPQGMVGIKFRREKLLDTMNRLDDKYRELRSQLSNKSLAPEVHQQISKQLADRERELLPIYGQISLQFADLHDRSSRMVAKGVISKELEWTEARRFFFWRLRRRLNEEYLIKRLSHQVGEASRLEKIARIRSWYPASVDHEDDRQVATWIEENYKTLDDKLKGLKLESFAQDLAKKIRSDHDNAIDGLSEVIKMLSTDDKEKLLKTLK
Description: as §1, §2

C. krusei ATCC 6258 = assay: Anti-Fungal (Candida) Activity Assay, broth microtiter MIC; assay type: cell-based, Candida krusei; conditions: Pichia kudriavzevii, ATCC6258, 48 h, 3 replicates, MIC read at 48 h
Description: Compounds of the present invention were evaluated in an Anti-Fungal Activity Assay. An exemplary procedure for the assay, which measures the susceptibility of various Candida species to anti-fungal compounds, follows. Compounds to be tested (including fluconazole and amphotericin B) were dissolved in DMSO to obtain a solution having a concentration of 1 mg/mL. These stock solutions were sterile filtered using a 0.22 um nylon syringe filter, then diluted in sterile water to achieve a final concentration of 128 μg/mL.
All species were grown from frozen stock by directly plating on to freshly prepared Sabouraud Dextrose agar (BD, Difco) and incubated overnight in ambient air at 35° C. for 24 h. A direct suspension was prepared in RPMI 1640+MOPS (Lonza, Biowhittaker) by taking individual colonies from the overnight cultures using sterile swabs soaked in sterile saline. The concentration of the suspension was determined using pre-determined standard curves. These suspensions were then diluted down to 5×10^3 CFU/mL to achieve a final concentration of 2.5×10^3 CFU/mL once added to the microtiter plate as per CLSI guidelines (M27-A3, Vol. 28 No. 14).
Broth microtiter MIC challenge plates were prepared following CLSI guidelines (M27-A3, Vol. 28 No. 14). The original CLSI guidelines focused on reading Candida MICs after 48 h of incubation. As reading after only 24 h offers a clear advantage of patient care, QC limits are being established for all drugs at 24 h. That being said there are no known interpretive breakpoints for amphotericin B at 24 h and the current fluconazole interpretive breakpoints are based on a 48 h reading. The MIC for the test compounds were recorded at 48 h. All MIC determinations were achieved by visually comparing the growth found in the antibiotic challenged wells to that of the growth control.

hACC2, sequence (O00763 whole entry): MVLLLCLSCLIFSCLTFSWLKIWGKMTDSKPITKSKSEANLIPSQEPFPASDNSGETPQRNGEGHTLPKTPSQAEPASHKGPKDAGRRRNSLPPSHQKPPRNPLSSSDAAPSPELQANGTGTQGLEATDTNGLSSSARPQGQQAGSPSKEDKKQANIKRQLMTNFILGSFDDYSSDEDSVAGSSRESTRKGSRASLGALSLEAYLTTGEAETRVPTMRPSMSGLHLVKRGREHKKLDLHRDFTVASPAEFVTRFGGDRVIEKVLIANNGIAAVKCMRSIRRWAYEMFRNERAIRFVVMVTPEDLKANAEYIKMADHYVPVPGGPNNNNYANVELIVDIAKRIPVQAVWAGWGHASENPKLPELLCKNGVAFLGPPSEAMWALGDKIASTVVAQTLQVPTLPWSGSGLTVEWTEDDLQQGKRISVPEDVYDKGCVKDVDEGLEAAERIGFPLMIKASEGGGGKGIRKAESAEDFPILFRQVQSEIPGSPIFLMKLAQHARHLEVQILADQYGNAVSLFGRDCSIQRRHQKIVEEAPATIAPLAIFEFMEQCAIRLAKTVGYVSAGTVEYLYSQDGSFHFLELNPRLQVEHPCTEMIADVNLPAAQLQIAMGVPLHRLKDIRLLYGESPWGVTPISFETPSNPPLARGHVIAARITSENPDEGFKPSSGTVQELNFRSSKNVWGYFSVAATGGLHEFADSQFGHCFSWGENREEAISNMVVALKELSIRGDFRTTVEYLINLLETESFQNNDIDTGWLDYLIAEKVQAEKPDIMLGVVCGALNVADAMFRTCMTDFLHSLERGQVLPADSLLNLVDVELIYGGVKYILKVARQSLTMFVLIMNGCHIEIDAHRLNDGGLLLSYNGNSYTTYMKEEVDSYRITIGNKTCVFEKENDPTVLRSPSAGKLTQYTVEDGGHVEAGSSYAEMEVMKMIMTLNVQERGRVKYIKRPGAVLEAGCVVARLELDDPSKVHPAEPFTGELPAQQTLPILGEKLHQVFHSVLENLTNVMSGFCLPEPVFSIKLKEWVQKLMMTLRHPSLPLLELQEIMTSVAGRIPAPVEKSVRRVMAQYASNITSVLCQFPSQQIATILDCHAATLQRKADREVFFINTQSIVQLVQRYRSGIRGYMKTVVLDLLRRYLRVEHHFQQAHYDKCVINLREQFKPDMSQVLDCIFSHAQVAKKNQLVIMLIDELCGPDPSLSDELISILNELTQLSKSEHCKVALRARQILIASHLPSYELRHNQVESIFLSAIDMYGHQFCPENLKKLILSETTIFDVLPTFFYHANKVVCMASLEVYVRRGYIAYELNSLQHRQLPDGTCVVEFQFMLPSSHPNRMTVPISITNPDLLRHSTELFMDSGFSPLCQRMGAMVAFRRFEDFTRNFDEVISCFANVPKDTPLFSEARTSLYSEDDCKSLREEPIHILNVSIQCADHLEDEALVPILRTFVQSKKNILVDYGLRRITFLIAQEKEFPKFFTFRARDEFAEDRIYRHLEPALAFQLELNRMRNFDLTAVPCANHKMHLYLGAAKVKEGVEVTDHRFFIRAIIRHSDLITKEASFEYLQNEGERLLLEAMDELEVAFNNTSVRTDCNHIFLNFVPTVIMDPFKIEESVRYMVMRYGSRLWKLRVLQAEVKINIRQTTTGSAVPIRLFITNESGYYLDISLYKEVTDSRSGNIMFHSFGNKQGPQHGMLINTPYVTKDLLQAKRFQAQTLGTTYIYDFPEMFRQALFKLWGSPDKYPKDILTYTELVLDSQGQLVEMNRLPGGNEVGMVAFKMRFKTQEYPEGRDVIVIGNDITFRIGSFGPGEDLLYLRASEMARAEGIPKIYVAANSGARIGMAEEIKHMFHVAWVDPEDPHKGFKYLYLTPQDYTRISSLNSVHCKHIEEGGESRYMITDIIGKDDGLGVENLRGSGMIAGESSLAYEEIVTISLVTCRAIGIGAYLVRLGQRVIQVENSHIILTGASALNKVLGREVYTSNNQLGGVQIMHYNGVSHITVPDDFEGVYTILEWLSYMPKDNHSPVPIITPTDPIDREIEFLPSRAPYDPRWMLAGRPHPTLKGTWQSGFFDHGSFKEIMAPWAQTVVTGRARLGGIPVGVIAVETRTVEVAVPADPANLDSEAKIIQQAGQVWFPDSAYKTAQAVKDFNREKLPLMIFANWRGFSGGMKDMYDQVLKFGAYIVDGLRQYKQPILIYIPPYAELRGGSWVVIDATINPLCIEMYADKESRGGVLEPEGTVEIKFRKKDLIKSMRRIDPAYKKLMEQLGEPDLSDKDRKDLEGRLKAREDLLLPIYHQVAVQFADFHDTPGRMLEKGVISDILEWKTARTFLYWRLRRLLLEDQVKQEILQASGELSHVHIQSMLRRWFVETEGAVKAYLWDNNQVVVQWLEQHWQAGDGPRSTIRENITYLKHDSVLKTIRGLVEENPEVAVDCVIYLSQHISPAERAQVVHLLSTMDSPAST

## CCOC(=O)c1sc2c(c1C)c(=O)n(C(C)(C)C(=O)N1CCCCC1)c(=O)n2C[C@H](OC1CCOCC1)c1ccccc1OC [Compound I-2, ethyl (R)-1-(2-(2-methoxyphenyl)-2-((tetrahydro-2H-pyran-4-yl)oxy)ethyl)-5-methyl-3-(2-methyl-1-oxo-1-(piperidin-1-yl)propan-2-yl)-2,4-dioxo-1,2,3,4-tetrahydrothieno[2,3-d]pyrimidine-6-carboxylate]
hACC2; Table 2a
  IC50: 10 to 40 nM
hACC2; Table 2b (additional results)
  IC50: 10 to 40 nM
fACC2; Table 2a
  IC50: 0.6 to 3 nM
fACC2; Table 2b (additional results)
  IC50: 0.3 to 3 nM
C. krusei ATCC 6258; Table 3a
  MIC: 0.25 to 1 µg/mL (≈ 0.39 to 1.56 µM)
C. krusei ATCC 6258; Table 3b (additional results)
  MIC: 0.25 to 1 µg/mL (≈ 0.39 to 1.56 µM)

## CCOC(=O)c1sc2c(c1C)c(=O)n(C(C)(C)C(=O)N1CCCC1)c(=O)n2C[C@H](OC1CCOCC1)c1ccccc1OC [Compound I-3, ethyl (R)-1-(2-(2-methoxyphenyl)-2-((tetrahydro-2H-pyran-4-yl)oxy)ethyl)-5-methyl-3-(2-methyl-1-oxo-1-(pyrrolidin-1-yl)propan-2-yl)-2,4-dioxo-1,2,3,4-tetrahydrothieno[2,3-d]pyrimidine-6-carboxylate]
hACC2; Table 2a
  IC50: 10 to 40 nM
hACC2; Table 2b (additional results)
  IC50: 10 to 40 nM
fACC2; Table 2a
  IC50: 0.6 to 3 nM
fACC2; Table 2b (additional results)
  IC50: 0.3 to 3 nM
C. krusei ATCC 6258; Table 3a
  MIC: 0.25 to 1 µg/mL (≈ 0.398 to 1.59 µM)
C. krusei ATCC 6258; Table 3b (additional results)
  MIC: 2.1 to 4 µg/mL (≈ 3.35 to 6.37 µM)

## CCNC(=O)C(C)(C)n1c(=O)c2c(C)c(C(=O)OCC)sc2n(C[C@H](OC(C)C)c2ccccc2OC)c1=O [Compound I-4, (R)-ethyl 3-(1-(ethylamino)-2-methyl-1-oxopropan-2-yl)-1-(2-isopropoxy-2-(2-methoxyphenyl)ethyl)-5-methyl-2,4-dioxo-1,2,3,4-tetrahydrothieno[2,3-d]pyrimidine-6-carboxylate]
hACC2; Table 2a
  IC50: 10 to 40 nM
hACC2; Table 2b (additional results)
  IC50: 10 to 40 nM
fACC2; Table 2a
  IC50: 3 to 10 nM
fACC2; Table 2b (additional results)
  IC50: 3 to 10 nM
C. krusei ATCC 6258; Table 3a
  MIC: 2.1 to 4 µg/mL (≈ 3.75 to 7.15 µM)
C. krusei ATCC 6258; Table 3b (additional results)
  MIC: 2.1 to 4 µg/mL (≈ 3.75 to 7.15 µM)

## CCOC(=O)c1sc2c(c1C)c(=O)n(C(C)(C)C(=O)N1CCOCC1)c(=O)n2C[C@H](OC(C)C)c1ccccc1OC [Compound I-5, (R)-ethyl 1-(2-isopropoxy-2-(2-methoxyphenyl)ethyl)-5-methyl-3-(2-methyl-1-morpholino-1-oxopropan-2-yl)-2,4-dioxo-1,2,3,4-tetrahydrothieno[2,3-d]pyrimidine-6-carboxylate]
hACC2; Table 2a
  IC50: 10 to 40 nM
hACC2; Table 2b (additional results)
  IC50: 10 to 40 nM
fACC2; Table 2a
  IC50: 3 to 10 nM
fACC2; Table 2b (additional results)
  IC50: 3 to 10 nM
C. krusei ATCC 6258; Table 3a
  MIC: > 4.1 µg/mL
C. krusei ATCC 6258; Table 3b (additional results)
  MIC: 2.1 to 4 µg/mL (≈ 3.49 to 6.65 µM)

## CCOC(=O)c1sc2c(c1C)c(=O)n(C(C)(C)C(=O)N1CCCCC1)c(=O)n2C[C@H](OC(C)C)c1ccccc1OC [Compound I-6, (R)-ethyl 1-(2-isopropoxy-2-(2-methoxyphenyl)ethyl)-5-methyl-3-(2-methyl-1-oxo-1-(piperidin-1-yl)propan-2-yl)-2,4-dioxo-1,2,3,4-tetrahydrothieno[2,3-d]pyrimidine-6-carboxylate]
hACC2; Table 2a
  IC50: 10 to 40 nM
hACC2; Table 2b (additional results)
  IC50: 10 to 40 nM
fACC2; Table 2a
  IC50: 0.6 to 3 nM
fACC2; Table 2b (additional results)
  IC50: 0.3 to 3 nM
C. krusei ATCC 6258; Table 3a
  MIC: 2.1 to 4 µg/mL (≈ 3.5 to 6.67 µM)
C. krusei ATCC 6258; Table 3b (additional results)
  MIC: 2.1 to 4 µg/mL (≈ 3.5 to 6.67 µM)

## CCOC(=O)c1sc2c(c1C)c(=O)n(C(C)(C)C(=O)N1CCCC1)c(=O)n2C[C@H](OC(C)C)c1ccccc1OC [Compound I-7, (R)-ethyl 1-(2-isopropoxy-2-(2-methoxyphenyl)ethyl)-5-methyl-3-(2-methyl-1-oxo-1-(pyrrolidin-1-yl)propan-2-yl)-2,4-dioxo-1,2,3,4-tetrahydrothieno[2,3-d]pyrimidine-6-carboxylate]
hACC2; Table 2a
  IC50: 10 to 40 nM
hACC2; Table 2b (additional results)
  IC50: 10 to 40 nM
fACC2; Table 2a
  IC50: 0.6 to 3 nM
fACC2; Table 2b (additional results)
  IC50: 0.3 to 3 nM
C. krusei ATCC 6258; Table 3a
  MIC: 2.1 to 4 µg/mL (≈ 3.59 to 6.83 µM)
C. krusei ATCC 6258; Table 3b (additional results)
  MIC: 2.1 to 4 µg/mL (≈ 3.59 to 6.83 µM)

## CCOC(=O)c1sc2c(c1C)c(=O)n(C(C)(C)C(=O)NC(C)C)c(=O)n2C[C@H](OC1CCOCC1)c1ccccc1OC [Compound I-8, (R)-ethyl 3-(1-(isopropylamino)-2-methyl-1-oxopropan-2-yl)-1-(2-(2-methoxyphenyl)-2-((tetrahydro-2H-pyran-4-yl)oxy)ethyl)-5-methyl-2,4-dioxo-1,2,3,4-tetrahydrothieno[2,3-d]pyrimidine-6-carboxylate]
hACC2; Table 2a
  IC50: 10 to 40 nM
hACC2; Table 2b (additional results)
  IC50: 10 to 40 nM
fACC2; Table 2a
  IC50: 0.6 to 3 nM
fACC2; Table 2b (additional results)
  IC50: 0.3 to 3 nM
C. krusei ATCC 6258; Table 3a
  MIC: 0.25 to 1 µg/mL (≈ 0.406 to 1.62 µM)
C. krusei ATCC 6258; Table 3b (additional results)
  MIC: 2.1 to 4 µg/mL (≈ 3.41 to 6.5 µM)

## CCOC(=O)c1sc2c(c1C)c(=O)n(C(C)(C)C(=O)NC(C)C)c(=O)n2C[C@H](OC(C)C)c1ccccc1OC [Compound I-9, (R)-ethyl 1-(2-isopropoxy-2-(2-methoxyphenyl)ethyl)-3-(1-(isopropylamino)-2-methyl-1-oxopropan-2-yl)-5-methyl-2,4-dioxo-1,2,3,4-tetrahydrothieno[2,3-d]pyrimidine-6-carboxylate]
hACC2; Table 2a
  IC50: 10 to 40 nM
hACC2; Table 2b (additional results)
  IC50: 10 to 40 nM
fACC2; Table 2a
  IC50: 0.6 to 3 nM
fACC2; Table 2b (additional results)
  IC50: 0.3 to 3 nM
C. krusei ATCC 6258; Table 3a
  MIC: 2.1 to 4 µg/mL (≈ 3.66 to 6.97 µM)
C. krusei ATCC 6258; Table 3b (additional results)
  MIC: 2.1 to 4 µg/mL (≈ 3.66 to 6.97 µM)

## CCOC(=O)c1sc2c(c1C)c(=O)n(C(C)(C)C(N)=O)c(=O)n2C[C@H](OCCOC)c1cc(F)ccc1OC [Compound I-10, (R)-ethyl 3-(1-amino-2-methyl-1-oxopropan-2-yl)-1-(2-(5-fluoro-2-methoxyphenyl)-2-(2-methoxyethoxy)ethyl)-5-methyl-2,4-dioxo-1,2,3,4-tetrahydrothieno[2,3-d]pyrimidine-6-carboxylate]
hACC2; Table 2a
  IC50: ≥ 40 nM
hACC2; Table 2b (additional results)
  IC50: ≥ 40 nM
fACC2; Table 2a
  IC50: 3 to 10 nM
fACC2; Table 2b (additional results)
  IC50: 3 to 10 nM
C. krusei ATCC 6258; Table 3a
  MIC: > 4.1 µg/mL
C. krusei ATCC 6258; Table 3b (additional results)
  MIC: 2.1 to 4 µg/mL (≈ 3.71 to 7.07 µM)

## CCOC(=O)c1sc2c(c1C)c(=O)n(C(C)(C)C(=O)NC(C)C)c(=O)n2C[C@H](OCCOC)c1cc(F)ccc1OC [Compound I-11, (R)-ethyl 1-(2-(5-fluoro-2-methoxyphenyl)-2-(2-methoxy-ethoxy)ethyl)-3-(1-(isopropylamino)-2-methyl-1-oxopropan-2-yl)-5-methyl-2,4-dioxo-1,2,3,4-tetrahydrothieno[2,3-d]pyrimidine-6-carboxylate]
hACC2; Table 2a
  IC50: 10 to 40 nM
hACC2; Table 2b (additional results)
  IC50: 10 to 40 nM
fACC2; Table 2a
  IC50: 0.6 to 3 nM
fACC2; Table 2b (additional results)
  IC50: 0.3 to 3 nM
C. krusei ATCC 6258; Table 3a
  MIC: 2.1 to 4 µg/mL (≈ 3.46 to 6.58 µM)
C. krusei ATCC 6258; Table 3b (additional results)
  MIC: 2.1 to 4 µg/mL (≈ 3.46 to 6.58 µM)

## CCOC(=O)c1sc2c(c1C)c(=O)n(C(C)(C)C(=O)NC(C)C)c(=O)n2C[C@H](O)c1cc(F)ccc1OC [Compound I-19, (R)-ethyl 1-(2-(5-fluoro-2-methoxyphenyl)-2-hydroxyethyl)-3-(1-(isopropylamino)-2-methyl-1-oxopropan-2-yl)-5-methyl-2,4-dioxo-1,2,3,4-tetrahydrothieno[2,3-d]pyrimidine-6-carboxylate]
hACC2; Table 2b (additional results)
  IC50: 3 to 10 nM
C. krusei ATCC 6258; Table 3b (additional results)
  MIC: 0.25 to 1 µg/mL (≈ 0.455 to 1.82 µM)
